Test system: HLA-A2.1 (HLA-A*0201) Tg mice, CD4-depleted splenocytes
Type: cell-based, mouse

Sequence | T cell activation of HLA transgenic mice (SFC/10^6) IFN-γ ELISpot, A2 [SFC/10^6]
TLTHRLMSPHRVPNYNLF [NS3 265-282] | 150 ± 30
PQIIKEAINRRLRTAVLA [NS3 206-223] | 108 ± 22
EYRLRGEERKNFLELLR [NS3 523-539] | 57 ± 11
IVVEPGKNVKNVQTKPGV [NS3 98-115] | 145 ± 25
ATPPGTSDPFPESNSPI [NS3 317-333] | 151 ± 18
EMGANFKASRVIDSRKSV [NS3 413-430] | 130 ± 15
DPFPESNSPISDLQTEI [NS3 324-340] | 117 ± 20
RAWNSGYEWITEYTGKTV [NS3 343-360] | 55 ± 21
YISAIVQGERMDEPIPA [NS3 161-177] | 56 ± 28
TVWFVPSVKMGNEIALCL [NS3 359-376] | 75 ± 44
VLAPTRVVAAEMAEALR [NS3 221-237] | 26 ± 4
PIVDKNGDVIGLYGNGVI [NS3 138-155] | 159 ± 10
ECHTCIYNMMGKREKK [NS5 448-463] | 26 ± 7
VIGLYGNGVIMPNGSYI [NS3 146-162] | 58 ± 38
EKVYTMDGEYRLRGEERK [NS3 515-532] | 140 ± 24
MLRKKQITVLDLHPGAGK [NS3 183-200] | 62 ± 24
LSTKAACPTMGEAHNDKR [E 68-85] | 372 ± 242
KVELGEAAAIFMTATPPG [NS3 304-321] | 94 ± 22

Test system: HLA-DR2 (DRB1*1501) Tg mice, CD8-depleted splenocytes
Type: cell-based, mouse

Sequence | T cell activation of HLA transgenic mice (SFC/10^6) IFN-γ ELISpot, DR2 [SFC/10^6]
TLTHRLMSPHRVPNYNLF [NS3 265-282] | 169 ± 16
PQIIKEAINRRLRTAVLA [NS3 206-223] | 323 ± 21
EYRLRGEERKNFLELLR [NS3 523-539] | 160 ± 48
YISAIVQGERMDEPIPA [NS3 161-177] | 72 ± 15
EKVYTMDGEYRLRGEERK [NS3 515-532] | 95 ± 27
MLRKKQITVLDLHPGAGK [NS3 183-200] | 55 ± 2

Test system: HLA-DR3 (DRB1*0301) Tg mice, CD8-depleted splenocytes
Type: cell-based, mouse

Sequence | T cell activation of HLA transgenic mice (SFC/10^6) IFN-γ ELISpot, DR3 [SFC/10^6]
RGWGNGCGLFGKGSI [E 99-113] | 79 ± 7
SQIGLIEVLGKMPEHFM [NS4a 1-17] | 132 ± 17
DRRWCFDGPRTNTIL [NS3 560-574] | 225 ± 10
WHTTKGAALMSGEGRL [NS3 50-65] | 191 ± 37
EQQINHHWHKSGSSIGKA [E 390-407] | 50 ± 6
IKYEVAIFVHGPTTVESH [E 135-152] | 86 ± 13
WDFGSVGGVFTSVGKAVH [E 426-443] | 83 ± 13
IVVGRGEQQINHHWHK [E 384-399] | 87 ± 16
DTGCAIDISRQELRCGSGV [NS1 1-19] | 572 ± 20
GVFIHNDVEAWMDRYKYY [NS1 18-35] | 52 ± 8
FDGPRTNTILEDNNEVEV [NS3 565-582] | 59 ± 3
VFHTLWHTTKGAALM [NS3 45-59] | 63 ± 10
VWLAYKVAAAGVSYHDRR [NS3 545-562] | 110 ± 9
ARIMLDNINMPNGLIAQF [NS3 492-509] | 216 ± 42
NEDDSNFAHWTEARIML [NS3 480-496] | 121 ± 1

Source: patent US20130011427A1 (priority 2009, published 2013)
